Assay: xn = mol fraction of the nth substance listed
Settings: Gas, Frequency=0.002 MHz, Spherical resonator

[He] [helium] + C
Settings | speed of sound [m/s]
325 K, 5510.1 kPa, x2 = 0.95 | 474.34
325 K, 6484.7 kPa, x2 = 0.8999 | 489.68
325 K, 6498.1 kPa, x2 = 0.95 | 475.29
325 K, 7001.3 kPa, x2 = 0.95 | 475.96
325 K, 7483.3 kPa, x2 = 0.8999 | 491.54
325 K, 7498.5 kPa, x2 = 0.95 | 476.75
325 K, 8497.4 kPa, x2 = 0.8999 | 493.86
325 K, 8512.5 kPa, x2 = 0.95 | 478.75
325 K, 9494.2 kPa, x2 = 0.8999 | 496.64
325 K, 9503.9 kPa, x2 = 0.95 | 481.25
325 K, 10493 kPa, x2 = 0.8999 | 499.87
325 K, 10502 kPa, x2 = 0.95 | 484.31
325 K, 11469 kPa, x2 = 0.95 | 487.82
325 K, 11475 kPa, x2 = 0.8999 | 503.57
325 K, 12500 kPa, x2 = 0.8999 | 507.85
325 K, 12517 kPa, x2 = 0.95 | 492.25
325 K, 13295 kPa, x2 = 0.95 | 495.91
325 K, 13503 kPa, x2 = 0.8999 | 512.52
325 K, 14011 kPa, x2 = 0.95 | 499.58
325 K, 14493 kPa, x2 = 0.8999 | 517.56
325 K, 14716 kPa, x2 = 0.95 | 503.46
325 K, 15294 kPa, x2 = 0.8999 | 521.98
325 K, 15309 kPa, x2 = 0.95 | 506.94
325 K, 15995 kPa, x2 = 0.8999 | 526.06
325 K, 16003 kPa, x2 = 0.95 | 511.23
325 K, 16485 kPa, x2 = 0.8999 | 529.05
325 K, 16552 kPa, x2 = 0.95 | 514.81
325 K, 16992 kPa, x2 = 0.8999 | 532.23
325 K, 17002 kPa, x2 = 0.95 | 517.85
325 K, 17513 kPa, x2 = 0.95 | 521.43
325 K, 17520 kPa, x2 = 0.8999 | 535.66
325 K, 17961 kPa, x2 = 0.95 | 524.66
325 K, 17995 kPa, x2 = 0.8999 | 538.81
325 K, 18490 kPa, x2 = 0.8999 | 542.22
325 K, 18521 kPa, x2 = 0.95 | 528.85
325 K, 18993 kPa, x2 = 0.8999 | 545.76
325 K, 19024 kPa, x2 = 0.95 | 532.71
325 K, 19504 kPa, x2 = 0.8999 | 549.41
325 K, 19536 kPa, x2 = 0.95 | 536.75
325 K, 19906 kPa, x2 = 0.8999 | 552.38
350 K, 476.77 kPa, x2 = 0.95 | 491.9
350 K, 489.4 kPa, x2 = 0.8999 | 503.05
350 K, 985.81 kPa, x2 = 0.95 | 491.68
350 K, 990 kPa, x2 = 0.8999 | 503.09
350 K, 1981.5 kPa, x2 = 0.8999 | 503.39
350 K, 1988.5 kPa, x2 = 0.95 | 491.41
350 K, 3476.8 kPa, x2 = 0.8999 | 504.31
350 K, 3557.7 kPa, x2 = 0.95 | 491.72
350 K, 4993.3 kPa, x2 = 0.8999 | 506.12
350 K, 5005.4 kPa, x2 = 0.95 | 492.68
350 K, 6484 kPa, x2 = 0.8999 | 508.51
350 K, 6520.9 kPa, x2 = 0.95 | 494.52
350 K, 7487.6 kPa, x2 = 0.8999 | 510.6
350 K, 8493.7 kPa, x2 = 0.8999 | 513.01
350 K, 8537.3 kPa, x2 = 0.95 | 498.36
350 K, 9502.1 kPa, x2 = 0.8999 | 515.83
350 K, 10503 kPa, x2 = 0.8999 | 518.95
350 K, 10534 kPa, x2 = 0.95 | 503.83
350 K, 11996 kPa, x2 = 0.8999 | 524.33
350 K, 12032 kPa, x2 = 0.95 | 509.02
350 K, 13418 kPa, x2 = 0.95 | 514.87
350 K, 13498 kPa, x2 = 0.8999 | 530.47
350 K, 14498 kPa, x2 = 0.8999 | 535.04
350 K, 14519 kPa, x2 = 0.95 | 519.93
350 K, 15505 kPa, x2 = 0.8999 | 539.96
350 K, 15599 kPa, x2 = 0.95 | 525.36
350 K, 16500 kPa, x2 = 0.8999 | 545.16
350 K, 16626 kPa, x2 = 0.95 | 530.93
350 K, 17495 kPa, x2 = 0.8999 | 550.65
350 K, 17512 kPa, x2 = 0.95 | 536.05
350 K, 18437 kPa, x2 = 0.95 | 541.71
350 K, 18509 kPa, x2 = 0.8999 | 556.57
350 K, 19237 kPa, x2 = 0.95 | 546.81
350 K, 19509 kPa, x2 = 0.8999 | 562.67
350 K, 20020 kPa, x2 = 0.95 | 552
350 K, 20352 kPa, x2 = 0.8999 | 568.05
350 K, 20966 kPa, x2 = 0.95 | 558.46
375 K, 480.89 kPa, x2 = 0.8999 | 517.61
375 K, 508.08 kPa, x2 = 0.95 | 506.89
375 K, 970.3 kPa, x2 = 0.95 | 506.94
375 K, 974.52 kPa, x2 = 0.8999 | 518
375 K, 1977.8 kPa, x2 = 0.8999 | 518.72
375 K, 1994.9 kPa, x2 = 0.95 | 507.23
375 K, 2982.4 kPa, x2 = 0.8999 | 519.78
375 K, 3486.1 kPa, x2 = 0.95 | 508.11
375 K, 4474.8 kPa, x2 = 0.8999 | 521.69
375 K, 4994.3 kPa, x2 = 0.95 | 509.68
375 K, 5993.9 kPa, x2 = 0.8999 | 524.5
375 K, 6507.4 kPa, x2 = 0.95 | 511.94
375 K, 7482.9 kPa, x2 = 0.8999 | 527.66
375 K, 8485.9 kPa, x2 = 0.8999 | 530.3
375 K, 8534.5 kPa, x2 = 0.95 | 516.24
375 K, 9494.9 kPa, x2 = 0.8999 | 533.16
375 K, 10491 kPa, x2 = 0.8999 | 536.22
375 K, 10526 kPa, x2 = 0.95 | 521.64
375 K, 11482 kPa, x2 = 0.8999 | 539.61
375 K, 12041 kPa, x2 = 0.95 | 526.64
375 K, 12500 kPa, x2 = 0.8999 | 543.46
375 K, 13432 kPa, x2 = 0.95 | 531.87
375 K, 13465 kPa, x2 = 0.8999 | 547.3
375 K, 14475 kPa, x2 = 0.8999 | 551.75
375 K, 14510 kPa, x2 = 0.95 | 536.35
375 K, 15493 kPa, x2 = 0.8999 | 556.41
375 K, 15609 kPa, x2 = 0.95 | 541.3
375 K, 16440 kPa, x2 = 0.8999 | 560.93
375 K, 16573 kPa, x2 = 0.95 | 545.93
375 K, 17490 kPa, x2 = 0.8999 | 566.34
375 K, 17518 kPa, x2 = 0.95 | 550.72
375 K, 18172 kPa, x2 = 0.8999 | 569.92
375 K, 18322 kPa, x2 = 0.95 | 555.02
375 K, 18705 kPa, x2 = 0.8999 | 572.84
375 K, 19198 kPa, x2 = 0.95 | 559.9
